Assay results from patent US6737383B1, “Herbicidal oxadiazolidines” (priority 1999, dated 2004).

What was measured:
Conditions in all cases: Preemergence
cocklebur = assay: Test B pre/postemergence cocklebur; type: in vivo, Xanthium strumarium
Description: (§1) Seeds of bedstraw (Galium aparine), blackgrass (Alopecurus myosuroides), surinam grass (Brachiaria decumbens), cocklebur (Xanthium strumarium), corn (Zea mays), crabgrass (Digitaria sanguinalis), giant foxtail (Setaria faberii), morningglory (Ipomoea hederacea), pigweed (Amaranthus retroflexus), rape (Brassica napus), soybean (Glycine max), sugar beet (Beta vulgaris), velvetleaf (Abutilon theophrasti), wheat (Triticum aestivum), wild oat (Avena fatua) and purple nutsedge (Cyperus rotundus) tubers were planted and treated preemnergence with test chemicals formulated in a non-phytotoxic solvent mixture which included a surfactant.
(§2) At the same time, these crop and weed species were also treated with postemergence applications of test chemicals formulated in the same manner. Plants ranged in height from 2 to 18 cm (1- to 4-leaf stage) for postemergence treatments. Plant species in the flood test consisted of rice (Oryza sativa), smallflower flatsedge (Cyperus difformis), duck salad (Heteranthera limosa) and bamyardgrass (Echinochloa crus-galli) grown to the 2-leaf stage for testing. Treated plants and controls were maintained in a greenhouse for twelve to sixteen days, after which all species were compared to controls and visually evaluated. Plant response ratings, summarized in Table B, are based on a scale of 0 to 10 where 0 is no effect and 10 is complete control. A dash (−) response means no test result.

bedstraw = assay: Test B pre/postemergence bedstraw; type: in vivo, Galium aparine
Description: as §1, §2

crabgrass = assay: Test B pre/postemergence crabgrass; type: in vivo, Digitaria sanguinalis
Description: as §1, §2

soybean = assay: Test B pre/postemergence soybean; type: in vivo, Glycine max
Description: as §1, §2

pigweed = assay: Test B pre/postemergence pigweed; type: in vivo, Amaranthus retroflexus
Description: as §1, §2

blackgrass = assay: Test B pre/postemergence blackgrass; type: in vivo, Alopecurus myosuroides
Description: as §1, §2

purple nutsedge = assay: Test B pre/postemergence purple nutsedge; type: in vivo, Cyperus rotundus
Description: as §1, §2

morningglory = assay: Test B pre/postemergence morningglory; type: in vivo, Ipomoea hederacea
Description: as §1, §2

surinam grass = assay: Test B pre/postemergence surinam grass; type: in vivo, Brachiaria decumbens
Description: as §1, §2

wheat = assay: Test B pre/postemergence wheat; type: in vivo, Triticum aestivum
Description: as §1, §2

corn = assay: Test B pre/postemergence corn; type: in vivo, Zea mays
Description: as §1, §2

giant foxtail = assay: Test B pre/postemergence giant foxtail; type: in vivo, Setaria faberii
Description: as §1, §2

sugar beet = assay: Test B pre/postemergence sugar beet; type: in vivo, Beta vulgaris
Description: as §1, §2

velvetleaf = assay: Test B pre/postemergence velvetleaf; type: in vivo, Abutilon theophrasti
Description: as §1, §2

wild oat = assay: Test B pre/postemergence wild oat; type: in vivo, Avena fatua
Description: as §1, §2

rape = assay: Test B pre/postemergence rape; type: in vivo, Brassica napus
Description: as §1, §2

[1] = Rate 62 g/ha, scale of 0 to 10 where 0 is no effect and 10 is complete control
[2] = Rate 125 g/ha, scale of 0 to 10 where 0 is no effect and 10 is complete control
[3] = Rate 250 g/ha, scale 0 (no effect) to 10 (complete control)
[4] = Rate 500 g/ha, scale 0 to 10 (0 no effect, 10 complete control)

In the case of `CC(C)N(C(=O)n1oc(=O)n(C(C)C2=NOCC2)c1=O)c1ccc(F)cc1F` (racemic) [Compound 730], the “Cocklebur plant response rating” value (cocklebur; [1]) is reported as 0, the “Plant response rating, Cocklebur” value (cocklebur; [2]) is reported as 0 and the “Cocklebur plant response rating” value (cocklebur; [3]) is reported as 0. For the same molecule, the “Cocklebur plant response rating” value (cocklebur; [4]) was 0, the “Bedstraw plant response rating” value (bedstraw; [1]) was 0 and the “Plant response rating, Bedstraw” value (bedstraw; [2]) was 0. For the same molecule, the “Bedstraw plant response rating” value (bedstraw; [3]) was 0, the “Bedstraw plant response rating” value (bedstraw; [4]) was 4 and the “Crabgrass plant response rating” value (crabgrass; [1]) was 9. The “Plant response rating, Crabgrass” value (crabgrass; [2]) was 9, the “Crabgrass plant response rating” value (crabgrass; [3]) was 9 and the “Crabgrass plant response rating” value (crabgrass; [4]) was 10. For the same molecule, the “Soybean plant response rating” value (soybean; [1]) was 0, the “Plant response rating, Soybean” value (soybean; [2]) was 0 and the “Soybean plant response rating” value (soybean; [3]) was 2. For the same molecule, the “Soybean plant response rating” value (soybean; [4]) was 3, the “Redroot pigweed plant response rating” value (pigweed; [1]) was 6 and the “Plant response rating, Redroot pigweed” value (pigweed; [2]) was 9. The “Redroot pigweed plant response rating” value (pigweed; [3]) was 10, the “Redroot pigweed plant response rating” value (pigweed; [4]) was 10 and the “Blackgrass plant response rating” value (blackgrass; [1]) was 6. For the same molecule, the “Plant response rating, Blackgrass” value (blackgrass; [2]) was 9, the “Blackgrass plant response rating” value (blackgrass; [3]) was 10 and the “Blackgrass plant response rating” value (blackgrass; [4]) was 10. For the same molecule, the “Nutsedge plant response rating” value (purple nutsedge; [1]) was 0, the “Plant response rating, Nutsedge” value (purple nutsedge; [2]) was 0 and the “Nutsedge plant response rating” value (purple nutsedge; [3]) was 3. The “Nutsedge plant response rating” value (purple nutsedge; [4]) was 3, the “Morningglory plant response rating” value (morningglory; [1]) was 0 and the “Plant response rating, Morningglory” value (morningglory; [2]) was 0. The “Morningglory plant response rating” value (morningglory; [3]) was 0, the “Morningglory plant response rating” value (morningglory; [4]) was 2 and the “B. signalgrass plant response rating” value (surinam grass; [1]) was 0. For the same molecule, the “Plant response rating, B. signalgrass” value (surinam grass; [2]) was 0, the “B. signalgrass plant response rating” value (surinam grass; [3]) was 7 and the “B. signalgrass plant response rating” value (surinam grass; [4]) was 9. The “Wheat plant response rating” value (wheat; [1]) was 0, the “Plant response rating, Wheat” value (wheat; [2]) was 0 and the “Wheat plant response rating” value (wheat; [3]) was 0. For the same molecule, the “Wheat plant response rating” value (wheat; [4]) was 0, the “Corn plant response rating” value (corn; [1]) was 0 and the “Plant response rating, Corn” value (corn; [2]) was 3. For the same molecule, the “Corn plant response rating” value (corn; [3]) was 4, the “Corn plant response rating” value (corn; [4]) was 9 and the “Giant foxtail plant response rating” value (giant foxtail; [1]) was 10. For the same molecule, the “Plant response rating, Giant foxtail” value (giant foxtail; [2]) was 10, the “Giant foxtail plant response rating” value (giant foxtail; [3]) was 10 and the “Giant foxtail plant response rating” value (giant foxtail; [4]) was 10. The “Sugarbeets plant response rating” value (sugar beet; [1]) was 0, the “Plant response rating, Sugarbeets” value (sugar beet; [2]) was 2 and the “Sugarbeets plant response rating” value (sugar beet; [3]) was 4. For the same molecule, the “Sugarbeets plant response rating” value (sugar beet; [4]) was 7, the “Velvetleaf plant response rating” value (velvetleaf; [1]) was 0 and the “Plant response rating, Velvetleaf” value (velvetleaf; [2]) was 2. The “Velvetleaf plant response rating” value (velvetleaf; [3]) was 6, the “Velvetleaf plant response rating” value (velvetleaf; [4]) was 6 and the “Wild oats plant response rating” value (wild oat; [1]) was 0. For the same molecule, the “Plant response rating, Wild oats” value (wild oat; [2]) was 4, the “Wild oats plant response rating” value (wild oat; [3]) was 7 and the “Wild oats plant response rating” value (wild oat; [4]) was 9. The “Rape plant response rating” value (rape; [1]) was 0, the “Plant response rating, Rape” value (rape; [2]) was 0 and the “Rape plant response rating” value (rape; [3]) was 2. The “Rape plant response rating” value (rape; [4]) was 7.
